Data published in patent EP0726263A2, “Herbicidal (1,3,4)oxadiazoles and thiadiazoles” (American Cyanamid Company, priority 1995, dated 1996).

How the values were obtained:
Type in all cases: in vivo
Galium aparine [1] = assay: Herbicidal activity, postemergence test; conditions: post; sprayed onto seedling plants, 800 g of active material per hectare; evaluated 2 weeks after treatment
Procedure: (§1) To evaluate their herbicidal activity, compounds according to the invention are tested using a representative range of plants: TRZAW Triticum aestivum HORVW Hordeum vulgare ZEAMX Zea mays GOSHI Gossypium hirsutum HELAN Helianthus annuus GLYMA Glycine max ALOMY Alopecurus myosuroides SETVI Setaria viridis ECHCG Echinochloa crus-galli GALAP Galium aparine STEME Stellaria media VERPE Veronica persica VIOAR Viola arvensis IPOHE Ipomoea hederacea LAMPU Lamium purpureum PAPRH Papaver rhoeas MATIN Matricaria inodora AMARE Amaranthus retroflexus ABUTH Abutilon theophrasti AMBEL Ambrosia artemisifolia CHEAL Chenopodium album
(§2) The tests fall into two categories, preemergence and postemergence. The preemergence tests involve spraying a liquid formulation of the compound onto the soil in which the seeds have recently been sown. The postemergence tests involve spraying a liquid formulation of the compound onto seedling plants.
(§3) The soil used in the tests is a prepared horticultural loam.
(§4) The formulations used in the tests are prepared from solutions of the test compounds in acetone containing 0.4% by weight of an alkylphenol/ethylene oxide condensate available under the trade mark TRITON X-155. These acetone solutions are diluted with water and the resulting formulations applied at dosage levels corresponding to 800 g of active material per hectare in a volume equivalent to 900 litres per hectare.
(§5) In the preemergence tests untreated sown soil and in the postemergence tests untreated soil bearing seedling plants are used as controls.
(§6) Results of herbicide evaluation are expressed on a rating scale (0-9). The scale is based upon a visual observation of plant stand, vigor, malformation, size, chlorosis, and general plant appearance as compared to a control. Preemergence and postemergence treatments are evaluated at 3 and 2 weeks after treatment, respectively.

Alopecurus myosuroides [2] = assay: Herbicidal activity, postemergence test; conditions: post; sprayed onto seedling plants, 800 g of active material per hectare; evaluated 2 weeks after treatment
Procedure: as §1, §2, §3, §4, §5, §6

Veronica persica [3] = assay: Herbicidal activity, postemergence test; conditions: post; sprayed onto seedling plants, 800 g of active material per hectare; evaluated 2 weeks after treatment
Procedure: as §1, §2, §3, §4, §5, §6

Ipomoea hederacea [4] = assay: Herbicidal activity, postemergence test; conditions: post; sprayed onto seedling plants, 800 g of active material per hectare; evaluated 2 weeks after treatment
Procedure: as §1, §2, §3, §4, §5, §6

Triticum aestivum [5] = assay: Herbicidal activity, postemergence test; conditions: post; sprayed onto seedling plants, 800 g of active material per hectare; evaluated 2 weeks after treatment
Procedure: as §1, §2, §3, §4, §5, §6

Zea mays [6] = assay: Herbicidal activity, postemergence test; conditions: post; sprayed onto seedling plants, 800 g of active material per hectare; evaluated 2 weeks after treatment
Procedure: as §1, §2, §3, §4, §5, §6

Ambrosia artemisifolia [7] = assay: Herbicidal activity, postemergence test; conditions: post; sprayed onto seedling plants, 800 g of active material per hectare; evaluated 2 weeks after treatment
Procedure: as §1, §2, §3, §4, §5, §6

Chenopodium album [8] = assay: Herbicidal activity, postemergence test; conditions: post; sprayed onto seedling plants, 800 g of active material per hectare; evaluated 2 weeks after treatment
Procedure: as §1, §2, §3, §4, §5, §6

Glycine max [9] = assay: Herbicidal activity, postemergence test; conditions: post; sprayed onto seedling plants, 800 g of active material per hectare; evaluated 2 weeks after treatment
Procedure: as §1, §2, §3, §4, §5, §6

Setaria viridis [10] = assay: Herbicidal activity, postemergence test; conditions: post; sprayed onto seedling plants, 800 g of active material per hectare; evaluated 2 weeks after treatment
Procedure: as §1, §2, §3, §4, §5, §6

Amaranthus retroflexus [11] = assay: Herbicidal activity, postemergence test; conditions: post; sprayed onto seedling plants, 800 g of active material per hectare; evaluated 2 weeks after treatment
Procedure: as §1, §2, §3, §4, §5, §6

Matricaria inodora [12] = assay: Herbicidal activity, postemergence test; conditions: post; sprayed onto seedling plants, 800 g of active material per hectare; evaluated 2 weeks after treatment
Procedure: as §1, §2, §3, §4, §5, §6

Lamium purpureum [13] = assay: Herbicidal activity, postemergence test; conditions: post; sprayed onto seedling plants, 800 g of active material per hectare; evaluated 2 weeks after treatment
Procedure: as §1, §2, §3, §4, §5, §6

Hordeum vulgare [14] = assay: Herbicidal activity, postemergence test; conditions: post; sprayed onto seedling plants, 800 g of active material per hectare; evaluated 2 weeks after treatment
Procedure: as §1, §2, §3, §4, §5, §6

Stellaria media [15] = assay: Herbicidal activity, postemergence test; conditions: post; sprayed onto seedling plants, 800 g of active material per hectare; evaluated 2 weeks after treatment
Procedure: as §1, §2, §3, §4, §5, §6

Gossypium hirsutum [16] = assay: Herbicidal activity, postemergence test; conditions: post; sprayed onto seedling plants, 800 g of active material per hectare; evaluated 2 weeks after treatment
Procedure: as §1, §2, §3, §4, §5, §6

Abutilon theophrasti [17] = assay: Herbicidal activity, postemergence test; conditions: post; sprayed onto seedling plants, 800 g of active material per hectare; evaluated 2 weeks after treatment
Procedure: as §1, §2, §3, §4, §5, §6

Papaver rhoeas [18] = assay: Herbicidal activity, postemergence test; conditions: post; sprayed onto seedling plants, 800 g of active material per hectare; evaluated 2 weeks after treatment
Procedure: as §1, §2, §3, §4, §5, §6

Galium aparine [19] = assay: Herbicidal activity, preemergence test; conditions: pre; sprayed onto soil, 800 g of active material per hectare; evaluated 3 weeks after treatment
Procedure: as §1, §2, §3, §4, §5, §6

Alopecurus myosuroides [20] = assay: Herbicidal activity, preemergence test; conditions: pre; sprayed onto soil, 800 g of active material per hectare; evaluated 3 weeks after treatment
Procedure: as §1, §2, §3, §4, §5, §6

Veronica persica [21] = assay: Herbicidal activity, preemergence test; conditions: pre; sprayed onto soil, 800 g of active material per hectare; evaluated 3 weeks after treatment
Procedure: as §1, §2, §3, §4, §5, §6

Ipomoea hederacea [22] = assay: Herbicidal activity, preemergence test; conditions: pre; sprayed onto soil, 800 g of active material per hectare; evaluated 3 weeks after treatment
Procedure: as §1, §2, §3, §4, §5, §6

Triticum aestivum [23] = assay: Herbicidal activity, preemergence test; conditions: pre; sprayed onto soil, 800 g of active material per hectare; evaluated 3 weeks after treatment
Procedure: as §1, §2, §3, §4, §5, §6

Zea mays [24] = assay: Herbicidal activity, preemergence test; conditions: pre; sprayed onto soil, 800 g of active material per hectare; evaluated 3 weeks after treatment
Procedure: as §1, §2, §3, §4, §5, §6

Ambrosia artemisifolia [25] = assay: Herbicidal activity, preemergence test; conditions: pre; sprayed onto soil, 800 g of active material per hectare; evaluated 3 weeks after treatment
Procedure: as §1, §2, §3, §4, §5, §6

Chenopodium album [26] = assay: Herbicidal activity, preemergence test; conditions: pre; sprayed onto soil, 800 g of active material per hectare; evaluated 3 weeks after treatment
Procedure: as §1, §2, §3, §4, §5, §6

Glycine max [27] = assay: Herbicidal activity, preemergence test; conditions: pre; sprayed onto soil, 800 g of active material per hectare; evaluated 3 weeks after treatment
Procedure: as §1, §2, §3, §4, §5, §6

Setaria viridis [28] = assay: Herbicidal activity, preemergence test; conditions: pre; sprayed onto soil, 800 g of active material per hectare; evaluated 3 weeks after treatment
Procedure: as §1, §2, §3, §4, §5, §6

Amaranthus retroflexus [29] = assay: Herbicidal activity, preemergence test; conditions: pre; sprayed onto soil, 800 g of active material per hectare; evaluated 3 weeks after treatment
Procedure: as §1, §2, §3, §4, §5, §6

Matricaria inodora [30] = assay: Herbicidal activity, preemergence test; conditions: pre; sprayed onto soil, 800 g of active material per hectare; evaluated 3 weeks after treatment
Procedure: as §1, §2, §3, §4, §5, §6

Lamium purpureum [31] = assay: Herbicidal activity, preemergence test; conditions: pre; sprayed onto soil, 800 g of active material per hectare; evaluated 3 weeks after treatment
Procedure: as §1, §2, §3, §4, §5, §6

Hordeum vulgare [32] = assay: Herbicidal activity, preemergence test; conditions: pre; sprayed onto soil, 800 g of active material per hectare; evaluated 3 weeks after treatment
Procedure: as §1, §2, §3, §4, §5, §6

Stellaria media [33] = assay: Herbicidal activity, preemergence test; conditions: pre; sprayed onto soil, 800 g of active material per hectare; evaluated 3 weeks after treatment
Procedure: as §1, §2, §3, §4, §5, §6

Gossypium hirsutum [34] = assay: Herbicidal activity, preemergence test; conditions: pre; sprayed onto soil, 800 g of active material per hectare; evaluated 3 weeks after treatment
Procedure: as §1, §2, §3, §4, §5, §6

Abutilon theophrasti [35] = assay: Herbicidal activity, preemergence test; conditions: pre; sprayed onto soil, 800 g of active material per hectare; evaluated 3 weeks after treatment
Procedure: as §1, §2, §3, §4, §5, §6

Papaver rhoeas [36] = assay: Herbicidal activity, preemergence test; conditions: pre; sprayed onto soil, 800 g of active material per hectare; evaluated 3 weeks after treatment
Procedure: as §1, §2, §3, §4, §5, §6

C[C@H](NC(=O)c1nnc(-c2ccc(C(C)(C)C)cc2)o1)c1ccccc1 [Example 16]
GALAP control rating (0-9) (Galium aparine [1]): 7 (good herbicidal effect) | ALOMY control rating (0-9) (Alopecurus myosuroides [2]): 3 (moderate effect) | VERPE control rating (0-9) (Veronica persica [3]): 9 (complete kill) | IPOHE control rating (0-9) (Ipomoea hederacea [4]): 8 (approaching complete kill) | TRZAW control rating (0-9) (Triticum aestivum [5]): 2 (slight effect) | ZEAMX control rating (0-9) (Zea mays [6]): 3 (moderate effect) | AMBEL control rating (0-9) (Ambrosia artemisifolia [7]): 8 (approaching complete kill) | CHEAL control rating (0-9) (Chenopodium album [8]): 7 (good herbicidal effect) | GLXMA control rating (0-9) (Glycine max [9]): 4 (injury) | SETVI control rating (0-9) (Setaria viridis [10]): 9 (complete kill) | AMARE control rating (0-9) (Amaranthus retroflexus [11]): 9 (complete kill) | MATIN control rating (0-9) (Matricaria inodora [12]): 9 (complete kill) | LAMPU control rating (0-9) (Lamium purpureum [13]): 9 (complete kill) | HORVW control rating (0-9) (Hordeum vulgare [14]): 4 (injury) | STEME control rating (0-9) (Stellaria media [15]): 9 (complete kill) | GOSHI control rating (0-9) (Gossypium hirsutum [16]): 9 (complete kill) | ABUTH control rating (0-9) (Abutilon theophrasti [17]): 8 (approaching complete kill) | PAPRH control rating (0-9) (Papaver rhoeas [18]): 7 (good herbicidal effect) | GALAP control rating (0-9) (Galium aparine [19]): 0 (no effect) | ALOMY control rating (0-9) (Alopecurus myosuroides [20]): 0 (no effect) | VERPE control rating (0-9) (Veronica persica [21]): 9 (complete kill) | IPOHE control rating (0-9) (Ipomoea hederacea [22]): 1 (trace effect) | TRZAW control rating (0-9) (Triticum aestivum [23]): 0 (no effect) | ZEAMX control rating (0-9) (Zea mays [24]): 0 (no effect) | AMBEL control rating (0-9) (Ambrosia artemisifolia [25]): 3 (moderate effect) | CHEAL control rating (0-9) (Chenopodium album [26]): 7 (good herbicidal effect) | GLXMA control rating (0-9) (Glycine max [27]): 0 (no effect) | SETVI control rating (0-9) (Setaria viridis [28]): 8 (approaching complete kill) | AMARE control rating (0-9) (Amaranthus retroflexus [29]): 9 (complete kill) | MATIN control rating (0-9) (Matricaria inodora [30]): 9 (complete kill) | LAMPU control rating (0-9) (Lamium purpureum [31]): 8 (approaching complete kill) | HORVW control rating (0-9) (Hordeum vulgare [32]): 0 (no effect) | STEME control rating (0-9) (Stellaria media [33]): 6 (herbicidal effect) | GOSHI control rating (0-9) (Gossypium hirsutum [34]): 0 (no effect) | ABUTH control rating (0-9) (Abutilon theophrasti [35]): 1 (trace effect) | PAPRH control rating (0-9) (Papaver rhoeas [36]): 9 (complete kill)
